The target in this assay is T1, human PARD-1 (Poly (ADP-Ribose) Polymerase-1) (Homo sapiens, UniProt P09874).
T1 construct: purchased Trevigen Inc., Gaithersburg, Md
The experiment in a line: Poly (ADP-Ribose) Polymerase-1 in vitro enzyme assay (Universal Colorimetric Assay Kit, Trevigen). The class given is biochemical. The conditions noted are these: letter codes; read-out: extent of inhibition of PARP activity (IC50, micromolar). As for the experimental part:
Poly (ADP-Ribose) Polymerase-1 (PARD-1) In Vitro Enzyme Assay: Compounds were screened for inhibitory activity against human PARD-1 in vitro using the Universal Colorimetric PARD Assay Kit (Trevigen Inc., Gaithersburg, Md.) as directed by the supplier. Compounds are assayed in duplicate in 0.5% DMSO final concentration, negative control is no enzyme, while positive control is DMSO vehicle alone. IC50 determinations are made using Microsoft Excel. For all cell assays, compounds are added to cells in 5% DMSO/PBS for a final concentration of 0.5% DMSO.

The structures appear in SMILES notation. pIC50: −log10 of the molar value.

T1 sequence (P09874 whole entry): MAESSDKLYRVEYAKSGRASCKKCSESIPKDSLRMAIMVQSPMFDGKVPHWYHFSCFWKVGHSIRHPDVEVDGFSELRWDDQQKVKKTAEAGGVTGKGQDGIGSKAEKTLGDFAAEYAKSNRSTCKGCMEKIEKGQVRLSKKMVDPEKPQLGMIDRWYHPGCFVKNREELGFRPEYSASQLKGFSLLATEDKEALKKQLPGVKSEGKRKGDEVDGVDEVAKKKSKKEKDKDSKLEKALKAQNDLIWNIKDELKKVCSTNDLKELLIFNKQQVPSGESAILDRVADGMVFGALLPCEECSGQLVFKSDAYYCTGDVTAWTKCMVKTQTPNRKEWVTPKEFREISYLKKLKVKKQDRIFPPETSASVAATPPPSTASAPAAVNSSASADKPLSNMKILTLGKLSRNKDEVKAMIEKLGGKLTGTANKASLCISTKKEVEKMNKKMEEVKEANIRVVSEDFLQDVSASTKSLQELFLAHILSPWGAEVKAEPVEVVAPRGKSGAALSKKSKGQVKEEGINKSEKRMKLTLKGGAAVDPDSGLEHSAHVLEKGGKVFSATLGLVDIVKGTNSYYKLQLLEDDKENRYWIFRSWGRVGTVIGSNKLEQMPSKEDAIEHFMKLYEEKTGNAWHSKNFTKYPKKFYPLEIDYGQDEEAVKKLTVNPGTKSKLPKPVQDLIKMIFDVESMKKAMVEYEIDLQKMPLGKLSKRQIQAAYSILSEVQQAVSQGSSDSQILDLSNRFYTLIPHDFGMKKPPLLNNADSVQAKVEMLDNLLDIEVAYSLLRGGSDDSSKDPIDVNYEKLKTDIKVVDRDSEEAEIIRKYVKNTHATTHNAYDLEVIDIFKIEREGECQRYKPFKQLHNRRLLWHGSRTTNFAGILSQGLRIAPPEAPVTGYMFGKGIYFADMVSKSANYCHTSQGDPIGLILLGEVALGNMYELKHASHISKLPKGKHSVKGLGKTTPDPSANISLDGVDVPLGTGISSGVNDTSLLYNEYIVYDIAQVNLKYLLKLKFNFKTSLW

For `CCN1CCN(c2ccc(-c3n[nH]c(=O)c4ccccc34)cc2N)CC1` [4-(3-amino-4-(4-ethylpiperazin-1-yl)phenyl)phthalazin-1(2H)-one], the pIC50 (commonly the negative decadic logarithm of the IC50, by convention in mol/L) was 7.00 to 9.00.

For `CN1CCN(c2ccc(-c3n[nH]c(=O)c4ccccc34)cc2NC(=O)Cc2cccs2)CC1` [N-(2-(4-methylpiperazin-1-yl)-5-(4-oxo-3,4-dihydrophthalazin-1-yl)phenyl)-2-(thiophen-2-yl)acetamide], the pIC50 was 5.30 to 6.00.

With `CCN1CCN(c2ccc(-c3n[nH]c(=O)c4ccccc34)cc2NC(=O)C(C)(C)C)CC1` [N-(2-(4-ethylpiperazin-1-yl)-5-(4-oxo-3,4-dihydrophthalazin-1-yl)phenyl)pivalamide], the pIC50 was under 5.30.

For `Nc1cc(-c2n[nH]c(=O)c3ccccc23)ccc1N1CCN(CCO)CC1` [4-(3-amino-4-(4-(2-hydroxyethyl)piperazin-1-yl)phenyl)phthalazin-1(2H)-one], the negative logarithm of the IC50 (pIC50) is 7.00 to 9.00.

For `CCN1CCN(c2ccc(-c3n[nH]c(=O)c4ccccc34)cc2NC(C)=O)CC1` [N-(2-(4-ethylpiperazin-1-yl)-5-(4-oxo-3,4-dihydrophthalazin-1-yl)phenyl)acetamide], the negative logarithm of the IC50 (pIC50) was 5.30 to 6.00.

In the case of `Nc1cc(-c2n[nH]c(=O)c3ccccc23)ccc1N1CCN(CC2CCCO2)CC1` (stereo not shown) [4-(3-amino-4-(4-((tetrahydrofuran-2-yl)methyl)piperazin-1-yl)phenyl)phthalazin-1(2H)-one], the pIC50 was 6.00 to 7.00.

As to `Nc1cc(-c2n[nH]c(=O)c3ccccc23)ccc1N1CCN(C(=O)c2ccncc2)CC1` [4-(3-amino-4-(4-isonicotinoylpiperazin-1-yl)phenyl)phthalazin-1(2H)-one], the pIC50 is 6.00 to 7.00.

As to `CN1CCN(c2ccc(-c3n[nH]c(=O)c4ccccc34)cc2NC(=O)NC(C)(C)C)CC1` [1-tert-butyl-3-(2-(4-methylpiperazin-1-yl)-5-(4-oxo-3,4-dihydrophthalazin-1-yl)phenyl)urea], the negative-log IC50 (pIC50) is 6.00 to 7.00.

For `Nc1cc(-c2n[nH]c(=O)c3ccccc23)ccc1N1CCNCC1` [4-(3-amino-4-(piperazin-1-yl)phenyl)phthalazin-1(2H)-one], the pIC50 was 7.00 to 9.00.

With `CN1CCN(c2ccc(-c3n[nH]c(=O)c4ccccc34)cc2NC(=O)Nc2ccc(F)cc2)CC1` [1-(4-fluorophenyl)-3-(2-(4-methylpiperazin-1-yl)-5-(4-oxo-3,4-dihydrophthalazin-1-yl)phenyl)urea], the pIC50 is 6.00 to 7.00.

In the case of `Nc1cc(-c2n[nH]c(=O)c3ccccc23)ccc1N1CCN(Cc2ccncc2)CC1` [4-(3-amino-4-(4-(pyridin-4-ylmethyl)piperazin-1-yl)phenyl)phthalazin-1(2H)-one], the negative logarithm of the IC50 (pIC50) is 7.00 to 9.00.

For the compound `CN1CCN(c2ccc(-c3n[nH]c(=O)c4ccccc34)cc2NC(=O)CCl)CC1` [2-chloro-N-(2-(4-methylpiperazin-1-yl)-5-(4-oxo-3,4-dihydrophthalazin-1-yl)phenyl)acetamide], the pIC50 is 6.00 to 7.00.

`Nc1cc(-c2n[nH]c(=O)c3ccccc23)ccc1N1CCN(Cc2cccnc2)CC1` [4-(3-amino-4-(4-(pyridin-3-ylmethyl)piperazin-1-yl)phenyl)phthalazin-1(2H)-one]: the negative-log IC50 (pIC50) was 7.00 to 9.00.

In the case of `Nc1cc(-c2n[nH]c(=O)c3ccccc23)ccc1N1CCN(CC2CCCCC2)CC1` [4-(3-amino-4-(4-(cyclohexylmethyl)piperazin-1-yl)phenyl)phthalazin-1(2H)-one], the pIC50 was 7.00 to 9.00.

Turning to `Nc1ccccc1N1CCN(c2ccc(-c3n[nH]c(=O)c4ccccc34)cc2N)CC1` [4-(3-amino-4-(4-(2-aminophenyl)piperazin-1-yl)phenyl)phthalazin-1(2H)-one], the pIC50 was 5.30 to 6.00.

On to `CN(C)CCN1CCN(c2ccc(-c3n[nH]c(=O)c4ccccc34)cc2N)CC1` [4-(3-amino-4-(4-(2-(dimethylamino)ethyl)piperazin-1-yl)phenyl)phthalazin-1(2H)-one], for which the negative-log IC50 (pIC50) is 6.00 to 7.00.

For the compound `CN1CCN(c2ccc(-c3n[nH]c(=O)c4ccccc34)cc2NC(=O)NC2CCCCC2)CC1` [1-cyclohexyl-3-(2-(4-methylpiperazin-1-yl)-5-(4-oxo-3,4-dihydrophthalazin-1-yl)phenyl)urea], the pIC50 was 6.00 to 7.00.

For the compound `COC(=O)C(=O)Nc1cc(-c2n[nH]c(=O)c3ccccc23)ccc1N1CCN(C)CC1` [methyl 2-(2-(4-methylpiperazin-1-yl)-5-(4-oxo-3,4-dihydrophthalazin-1-yl)phenylamino)-2-oxoacetate], the negative-log IC50 (pIC50) is 6.00 to 7.00.

As for `Nc1cc(-c2n[nH]c(=O)c3ccccc23)ccc1N1CCN(CC2CC2)CC1` [4-(3-amino-4-(4-(cyclopropylmethyl)piperazin-1-yl)phenyl)phthalazin-1(2H)-one], the pIC50 was 7.00 to 9.00.

In the case of `CN1CCN(c2ccc(-c3n[nH]c(=O)c4ccccc34)cc2N)CC1` [4-(3-amino-4-(4-methylpiperazin-1-yl)phenyl)phthalazin-1(2H)-one], the pIC50 was 7.00 to 9.00.

Regarding `CC(C)N1CCN(c2ccc(-c3n[nH]c(=O)c4ccccc34)cc2N)CC1` [4-(3-amino-4-(4-isopropylpiperazin-1-yl)phenyl)phthalazin-1(2H)-one], the negative-log IC50 (pIC50) is 7.00 to 9.00.

Take `CC(=O)Nc1cc(-c2n[nH]c(=O)c3ccccc23)ccc1N1CCN(C(C)C)CC1` [N-(2-(4-isopropylpiperazin-1-yl)-5-(4-oxo-3,4-dihydrophthalazin-1-yl)phenyl)acetamide]: the pIC50 was 5.30 to 6.00.

With `CC(=O)Nc1cc(-c2n[nH]c(=O)c3ccccc23)ccc1N1CCN(C)CC1` [N-(2-(4-methylpiperazin-1-yl)-5-(4-oxo-3,4-dihydrophthalazin-1-yl)phenyl)acetamide], the negative-log IC50 (pIC50) is 6.00 to 7.00.

On to `CNC(=O)Nc1cc(-c2n[nH]c(=O)c3ccccc23)ccc1N1CCN(C)CC1` [1-methyl-3-(2-(4-methylpiperazin-1-yl)-5-(4-oxo-3,4-dihydrophthalazin-1-yl)phenyl)urea], for which the pIC50 was 6.00 to 7.00.

On to `Nc1cc(-c2n[nH]c(=O)c3ccccc23)ccc1N1CCN(CC(=O)O)CC1` [2-(4-(2-amino-4-(4-oxo-3,4-dihydrophthalazin-1-yl)phenyl)piperazin-1-yl)acetic acid], for which the negative logarithm of the IC50 (pIC50) is 7.00 to 9.00.

For `CC(=O)Nc1cc(-c2n[nH]c(=O)c3ccccc23)ccc1N1CCN(C(C)(C)C)CC1` [N-(2-(4-tert-butylpiperazin-1-yl)-5-(4-oxo-3,4-dihydrophthalazin-1-yl)phenyl)acetamide], the pIC50 was 5.30 to 6.00.

Regarding `CN1CCN(c2ccc(-c3n[nH]c(=O)c4ccccc34)cc2NC(=O)NC(=O)c2ccccc2)CC1` [N-(2-(4-methylpiperazin-1-yl)-5-(4-oxo-3,4-dihydrophthalazin-1-yl)phenylcarbamoyl)benzamide], the negative logarithm of the IC50 (pIC50) was 6.00 to 7.00.

Turning to `CC(=O)Nc1cc(-c2n[nH]c(=O)c3ccccc23)ccc1N1CCN(C(C)=O)CC1` [N-(2-(4-acetylpiperazin-1-yl)-5-(4-oxo-3,4-dihydrophthalazin-1-yl)phenyl)acetamide], the negative logarithm of the IC50 (pIC50) was 5.30 to 6.00.

As for `Nc1cc(-c2n[nH]c(=O)c3ccccc23)ccc1N1CCN(C2CC2)CC1` [4-(3-amino-4-(4-cyclopropylpiperazin-1-yl)phenyl)phthalazin-1(2H)-one], the negative logarithm of the IC50 (pIC50) is 7.00 to 9.00.

With `CN1CCN(c2ccc(-c3n[nH]c(=O)c4ccccc34)cc2NC(=O)C(C)(C)C)CC1` [N-(2-(4-methylpiperazin-1-yl)-5-(4-oxo-3,4-dihydrophthalazin-1-yl)phenyl)pivalamide], the negative-log IC50 (pIC50) was under 5.30.

As to `Nc1cc(-c2n[nH]c(=O)c3ccccc23)ccc1N1CCN(CCC(=O)O)CC1` [3-(4-(2-amino-4-(4-oxo-3,4-dihydrophthalazin-1-yl)phenyl)piperazin-1-yl)propanoic acid], the pIC50 is 6.00 to 7.00.

Consider `CN1CCC(N2CCN(c3ccc(-c4n[nH]c(=O)c5ccccc45)cc3N)CC2)CC1` [4-(3-amino-4-(4-(1-methylpiperidin-4-yl)piperazin-1-yl)phenyl)phthalazin-1(2H)-one], for which the pIC50 is 7.00 to 9.00.

In the case of `CC(C)(C)OC(=O)CN1CCN(c2ccc(-c3n[nH]c(=O)c4ccccc34)cc2N)CC1` [tert-butyl 2-(4-(2-amino-4-(4-oxo-3,4-dihydrophthalazin-1-yl)phenyl)piperazin-1-yl)acetate], the negative-log IC50 (pIC50) was 6.00 to 7.00.

Take `Nc1cc(-c2n[nH]c(=O)c3ccccc23)ccc1N1CCN(CCCO)CC1` [4-(3-amino-4-(4-(3-hydroxypropyl)piperazin-1-yl)phenyl)phthalazin-1(2H)-one]: the pIC50 is 7.00 to 9.00.

For the compound `CC(C)C(=O)Nc1cc(-c2n[nH]c(=O)c3ccccc23)ccc1N1CCN(C)CC1` [N-(2-(4-methylpiperazin-1-yl)-5-(4-oxo-3,4-dihydrophthalazin-1-yl)phenyl)isobutyramide], the negative-log IC50 (pIC50) is 5.30 to 6.00.

For the compound `CC(C)(C)N1CCN(c2ccc(-c3n[nH]c(=O)c4ccccc34)cc2N)CC1` [4-(3-amino-4-(4-tert-butylpiperazin-1-yl)phenyl)phthalazin-1(2H)-one], the pIC50 was 7.00 to 9.00.

Turning to `CN1CCN(c2ccc(-c3n[nH]c(=O)c4ccccc34)cc2NC(=O)c2ccc3c(c2)OCO3)CC1` [N-(2-(4-methylpiperazin-1-yl)-5-(4-oxo-3,4-dihydrophthalazin-1-yl)phenyl)benzo[d][1,3]dioxole-5-carboxamide], the pIC50 is 6.00 to 7.00.

On to `Nc1cc(-c2n[nH]c(=O)c3ccccc23)ccc1N1CCN(Cc2ccccc2)CC1` [4-(3-amino-4-(4-benzylpiperazin-1-yl)phenyl)phthalazin-1(2H)-one], for which the pIC50 is 6.00 to 7.00.

For the compound `CC(C)(C)C(=O)Nc1cc(-c2n[nH]c(=O)c3ccccc23)ccc1N1CCN(C(C)(C)C)CC1` [N-(2-(4-tert-butylpiperazin-1-yl)-5-(4-oxo-3,4-dihydrophthalazin-1-yl)phenyl)pivalamide], the pIC50 is under 5.30.

Turning to `Nc1cc(-c2n[nH]c(=O)c3ccccc23)ccc1N1CCN(c2ccncc2)CC1` [4-(3-amino-4-(4-(pyridin-4-yl)piperazin-1-yl)phenyl)phthalazin-1(2H)-one], the negative-log IC50 (pIC50) was 7.00 to 9.00.

The values are drawn from US20110098304A1, “Small molecule inhibitors of PARP activity” (priority 2009, published 2011).
